The values below are quoted from earlier work in PubChem BioAssay AID1259409 (Chemical Carcinogenesis Research Information System (CCRIS), 2018).

Where “and” joins values, the source holds several entries; their conditions need not be identical. Identical values can stand only once.

This data set relates to rodent chemically induced tumor inhibition, incidence and multiplicity. The data set can be described thus: CCRIS tumor inhibitor studies.

Consider `COc1cc(/C=C/C(=O)O)ccc1O`, for which the “tumour outcome (control, treated, inhibition, significance)” value is, setting by setting: (Carcinogen: 4-NITROQUINOLINE-1-OXIDE [56-57-5], Dose [Inhibitor]: 500 PPM IN DIET FOR 7 WK BEGINNING 1 WK PRIOR TO FIRST CARCINOGEN DOSE (STUDY DURATION: 32 WK), Route [Inhibitor]: ORAL, Species: RAT, Strain/Sex: F344/MALE, Target Tissue: Type of Lesion: TONGUE: PAPILLOMA OR CARCINOMA, Dose [Carcinogen]: 20 PPM IN DRINKING WATER FOR 5 WK (STUDY DURATION: 32 WK), Promoter: NONE) 9/15 (60%), 3/14 (21%), 65%, p<0.05; (Carcinogen: 4-NITROQUINOLINE-1-OXIDE, 56-57-5, Dose [Inhibitor]: 0, 500 PPM IN DIET FOR 7 WK BEGINNING 1 WK PRIOR TO START OF CARCINOGEN TREATMENT (STUDY DURATION: 32 WK), Route [Inhibitor]: ORAL, Species: RAT, Strain/Sex: F344/MALE, Target Tissue: Type of Lesion: TONGUE: PAPILLOMA, Dose [Carcinogen]: 20 PPM IN DRINKING WATER FOR 5 WK, Promoter: NONE USED) 1/15 (7%), 2/14 (14%), -100%, not significant; (Carcinogen: 7,12-DIMETHYLBENZ[A]ANTHRACENE, 57-97-6, Dose [Inhibitor]: 0, 5 MG IN 200 µL ACETONE 2/WK BEGINNING 10 D POST CARCINOGEN DOSE APPLIED 30-40 MIN PRIOR TO EACH PROMOTER DOSE (STUDY, Route [Inhibitor]: DERMAL, Species: MOUSE, Strain/Sex: ICR/FEMALE, Target Tissue: Type of Lesion: SKIN: PAPILLOMA, Dose [Carcinogen]: 200 NMOL IN 200 µL ACETONE ONCE, Promoter: 12-O-TETRADECANOYLPHORBOL-13-ACETATE, 16561-29-8) 100%, 94%, 6%, not significant and 100%, 65%, 35%, not calculated; (Carcinogen: 7,12-DIMETHYLBENZ[A]ANTHRACENE, 57-97-6, Dose [Inhibitor]: 10 UMOL IN 200 µL ACETONE/DMSO (90:10) 2/WK FOR 19 WK BEGINNING 1 WK POST CARCINOGEN DOSE (STUDY DURATION: 20 WK), Route [Inhibitor]: DERMAL, Species: MOUSE, Strain/Sex: CD-1/FEMALE, Target Tissue: Type of Lesion: SKIN: PAPILLOMA, Dose [Carcinogen]: 200 NMOL IN 200 µL ACETONE ONCE, Promoter: 12-O-TETRADECANOYLPHORBOL-13-ACETATE, 16561-29-8) 68%, 64%, 6%, not calculated; (Carcinogen: 7,12-DIMETHYLBENZ[A]ANTHRACENE, 57-97-6, Dose [Inhibitor]: 50 UMOL IN 200 µL ACETONE/DMSO (90:10) 2/WK FOR 19 WK BEGINNING 1 WK POST CARCINOGEN DOSE (STUDY DURATION: 20 WK), Route [Inhibitor]: DERMAL, Species: MOUSE, Strain/Sex: CD-1/FEMALE, Target Tissue: Type of Lesion: SKIN: PAPILLOMA, Dose [Carcinogen]: 200 NMOL IN 200 µL ACETONE ONCE, Promoter: 12-O-TETRADECANOYLPHORBOL-13-ACETATE, 16561-29-8) 68%, 13%, 81%, not calculated; (Carcinogen: AZOXYMETHANE [25843-45-2], Dose [Inhibitor]: 0, 250 PPM IN DIET FOR 12 WK (STUDY DURATION: 35 WK), Route [Inhibitor]: ORAL, Species: RAT, Strain/Sex: F344/MALE, Target Tissue: Type of Lesion: INTESTINE: TUMOR, Dose [Carcinogen]: 15 MG/KG 3X/WK FOR 12 WK (STUDY DURATION: 35 WK), Promoter: NONE) 64%, 32%, 50%, p<0.05. Besides, the “tumour outcome (control, treated, inhibition, significance)” value is, setting by setting: (Carcinogen: AZOXYMETHANE [25843-45-2], Dose [Inhibitor]: 0, 250 PPM IN DIET FOR 12 WK (STUDY DURATION: 35 WK), Route [Inhibitor]: ORAL, Species: RAT, Strain/Sex: F344/MALE, Target Tissue: Type of Lesion: SMALL INTESTINE: TUMOR, Dose [Carcinogen]: 15 MG/KG 3X/WK FOR 12 WK (STUDY DURATION: 35 WK), Promoter: NONE) 18%, 5%, 72%, not significant; (Carcinogen: AZOXYMETHANE [25843-45-2], Dose [Inhibitor]: 0, 250 PPM IN DIET FOR 23 WK BEGINNING POST LAST CARCINOGEN DOSE (STUDY DURATION: 35 WK), Route [Inhibitor]: ORAL, Species: RAT, Strain/Sex: F344/MALE, Target Tissue: Type of Lesion: INTESTINE: TUMOR, Dose [Carcinogen]: 15 MG/KG 3X/WK FOR 12 WK (STUDY DURATION: 35 WK), Promoter: NONE) 64%, 41%, 36%, p<0.05; (Carcinogen: AZOXYMETHANE [25843-45-2], Dose [Inhibitor]: 0, 250 PPM IN DIET FOR 23 WK BEGINNING POST LAST CARCINOGEN DOSE (STUDY DURATION: 35 WK), Route [Inhibitor]: ORAL, Species: RAT, Strain/Sex: F344/MALE, Target Tissue: Type of Lesion: LARGE INTESTINE: TUMOR, Dose [Carcinogen]: 15 MG/KG 3X/WK FOR 12 WK (STUDY DURATION: 35 WK), Promoter: NONE) 11%, 36%, -227%, not significant; (Carcinogen: AZOXYMETHANE [25843-45-2], Dose [Inhibitor]: 0, 250 PPM IN DIET FOR 23 WK BEGINNING POST LAST CARCINOGEN DOSE (STUDY DURATION: 35 WK), Route [Inhibitor]: ORAL, Species: RAT, Strain/Sex: F344/MALE, Target Tissue: Type of Lesion: SMALL INTESTINE: TUMOR, Dose [Carcinogen]: 15 MG/KG 3X/WK FOR 12 WK (STUDY DURATION: 35 WK), Promoter: NONE) 18%, 18%, 0%, not significant; (Carcinogen: AZOXYMETHANE [25843-45-2], Dose [Inhibitor]: 0, 500 PPM IN DIET FOR 12 WK (STUDY DURATION: 35 WK), Route [Inhibitor]: ORAL, Species: RAT, Strain/Sex: F344/MALE, Target Tissue: Type of Lesion: INTESTINE: TUMOR, Dose [Carcinogen]: 15 MG/KG 3X/WK FOR 12 WK (STUDY DURATION: 35 WK), Promoter: NONE) 64%, 32%, 50%, p<0.05; (Carcinogen: AZOXYMETHANE [25843-45-2], Dose [Inhibitor]: 0, 500 PPM IN DIET FOR 12 WK (STUDY DURATION: 35 WK), Route [Inhibitor]: ORAL, Species: RAT, Strain/Sex: F344/MALE, Target Tissue: Type of Lesion: LARGE INTESTINE: TUMOR, Dose [Carcinogen]: 15 MG/KG 3X/WK FOR 12 WK (STUDY DURATION: 35 WK), Promoter: NONE) 11%, 27%, -146%, not significant. Further, the “tumour outcome (control, treated, inhibition, significance)” value (Carcinogen: AZOXYMETHANE [25843-45-2], Dose [Inhibitor]: 0, 500 PPM IN DIET FOR 12 WK (STUDY DURATION: 35 WK), Route [Inhibitor]: ORAL, Species: RAT, Strain/Sex: F344/MALE, Target Tissue: Type of Lesion: SMALL INTESTINE: TUMOR, Dose [Carcinogen]: 15 MG/KG 3X/WK FOR 12 WK (STUDY DURATION: 35 WK), Promoter: NONE) is 18%, 5%, 72%, not significant and the “tumour outcome (control, treated, inhibition, significance)” value (Carcinogen: AZOXYMETHANE [25843-45-2], Dose [Inhibitor]: 0, 500 PPM IN DIET FOR 23 WK BEGINNING POST LAST CARCINOGEN DOSE (STUDY DURATION: 35 WK), Route [Inhibitor]: ORAL, Species: RAT, Strain/Sex: F344/MALE, Target Tissue: Type of Lesion: INTESTINE: TUMOR, Dose [Carcinogen]: 15 MG/KG 3X/WK FOR 12 WK (STUDY DURATION: 35 WK), Promoter: NONE) is recorded as 64%, 41%, 36%, not significant.
